Where two headings read alike, the source gives them in different places.
Key:
[1] = Mouse Fast PK/BBB: plasma and brain concentration; format: in vivo, Male C57bl/6j mice; settings: mice; for concentration at 1 h / concentration at 4 h: male, C57bl/6j, mouse; for concentration at 4 h / Brain Mean Conc. ± Std. Dev: 4 hr
Method: Male Sprague Dawley rats are ordered from Charles River (225-250 gm upon arrival). They are fed standard chow diet (Purina 5001) and housed 2 per cage. Male C57bl/6j mice are ordered from Charles River at 22-25 g and housed 3 per cage. They are fed standard chow (Purina 5001). All animals are housed in a temperature-controlled room with 12-hour light/dark cycle. Animals are given food and water ad libitum, except as noted.
Test compounds are administered by oral gavage (5 ml kg^−1 or 10 ml kg^−1).
Male C57bl/6j mice were dosed with test compounds at 20 or 30 mg/kg. Plasma was collected via retro-orbital bleeding at 1 hr and 4 hrs after dosing. Whole brain without cerebellum was collected at 4 hrs after dosing. Wet brain weight was recorded before freezing. Brains were homogenized in saline and sent for analysis for determination of concentration of test compound.
Representative compounds of formula (I) of the present invention were tested according to the procedure described above, with results as listed in Table BIO-2 below.

[2] = target: Human CB2R (Cannabinoid receptor 2) (Homo sapiens, UniProt P34972); assay: CB-2 in vitro cAMP (HTRF) assay; format: cell-based; settings: HEK cells, cAMP HTRF, 250 nM forskolin; mean where tested more than once; read-out: CB2 HEK_cAMP EC50
Human CB2R (Cannabinoid receptor 2), sequence (P34972 whole entry): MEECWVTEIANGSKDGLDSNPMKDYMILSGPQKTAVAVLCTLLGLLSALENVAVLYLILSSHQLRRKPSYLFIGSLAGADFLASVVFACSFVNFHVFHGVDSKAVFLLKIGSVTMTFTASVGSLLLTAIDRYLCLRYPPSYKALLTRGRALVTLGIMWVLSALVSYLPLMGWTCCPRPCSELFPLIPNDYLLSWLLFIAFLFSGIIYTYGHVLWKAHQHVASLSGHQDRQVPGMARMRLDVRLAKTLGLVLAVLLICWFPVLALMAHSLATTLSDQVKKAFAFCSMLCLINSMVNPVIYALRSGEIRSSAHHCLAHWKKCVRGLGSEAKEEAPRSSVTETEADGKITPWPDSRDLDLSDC
Summary of the method: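 HEK-293 cells stably expressing receptor, plated overnight at 4E5 cells/mL, tested with 1/3 serial dilutions of compound in HBSS/HEPES/BSA buffer with 0.5 mM IBMX and forskolin (diluted to 1.5 μM in buffer). cAMP measured by competitive HTRF immunoassay (d2-cAMP, cryptate anti-cAMP), signal inversely proportional to cAMP.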

[3] = Mouse Fast PK/BBB: plasma and brain concentration; format: in vivo, Male C57bl/6j mice; settings: mice; for Brain Mean Conc. ± Std. Dev: 1 hr; for concentration at 1 h: male, C57bl/6j, mouse, brain, read-out: Brain Mean Conc. ± Std. Dev
[4] = plasma, dose 30 mg/kg oral, read-out: Plasma Mean Conc. ± Std. Dev
[5] = plasma, dose 20 mg/kg oral, read-out: Plasma Mean Conc. ± Std. Dev
[6] = brain (whole brain without cerebellum), dose 20 mg/kg oral, read-out: Brain Mean Conc. ± Std. Dev
[7] = brain (whole brain without cerebellum), dose 30 mg/kg oral, read-out: Brain Mean Conc. ± Std. Dev

SMILES	EC50 [2] [µM]	concentration at 1 h [1, 5] [ng/mL]	concentration at 4 h [1, 5] [ng/mL]	Brain Mean Conc. ± Std. Dev ([1]; dose 20 mg/kg oral)	Brain Mean Conc. ± Std. Dev ([3]; dose 20 mg/kg oral)	concentration at 4 h [1, 6] [ng/mL]	concentration at 1 h ([3]; dose 20 mg/kg oral) [ng/mL]	concentration at 1 h [1, 4] [ng/mL]	concentration at 4 h [1, 4] [ng/mL]	Brain Mean Conc. ± Std. Dev ([1]; dose 30 mg/kg oral)	Brain Mean Conc. ± Std. Dev ([3]; dose 30 mg/kg oral)	concentration at 4 h [1, 7] [ng/mL]	concentration at 1 h ([3]; dose 30 mg/kg oral) [ng/mL]
O=C(O)c1cccc(CN2CCC(n3c(C4CC4)nc4ccc(C(c5ccc(Cl)cc5)c5ccc(Cl)cc5)cc43)CC2)n1 [Example 125]	9.9							4490 ± 1010	390 ± 157	BLOQ ± NA	BLOQ ± NA		
O=C(O)c1ccc(F)c(CN2CCC(n3c(C4CC4)nc4ccc(C(c5ccc(Cl)cc5)c5ccc(Cl)cc5)cc43)CC2)c1 [Example 92]	5.19							11400 ± 2020	5190 ± 277			89.2 ± 27.7	72.4 ± 11.1
O=C(O)c1ccc(CN2CCC(n3c(C4CC4)nc4ccc(C(c5ccc(Cl)cc5)c5ccc(Cl)cc5)cc43)CC2)nc1 [Example 124]	> 10							2020 ± 555	297 ± 107	BLOQ ± NA	BLOQ ± NA		
CCc1nc2ccc(C(c3ccc(Cl)cc3)c3ccc(Cl)cc3)cc2n1C1CCN(S(=O)(=O)C(F)(F)F)CC1 [Example 328]	> 14	2640 ± 337	1600 ± 109			99.3 ± 13.3	39.1 ± 1.95						
O=C(O)c1cccc(CN2CCC(n3c(C4CC4)nc4ccc(C(c5ccc(Cl)cc5)c5ccc(Cl)cc5)cc43)CC2)c1 [Example 148]	4.93							13500 ± 273	7750 ± 3100			417 ± 50	334 ± 108
O=C(O)c1cc(F)cc(CN2CCC(n3c(C4CC4)nc4ccc(C(c5ccc(Cl)cc5)c5ccc(Cl)cc5)cc43)CC2)c1 [Example 89]	7.9							7190 ± 488	4430 ± 227			129 ± 33.2	92.6 ± 20.4
O=C(O)c1ccc(CN2CCC(n3c(C4CC4)nc4ccc(C(c5ccc(Cl)cc5)c5ccc(Cl)cc5)cc43)CC2)o1 [Example 129]	> 10							1370 ± 749	84.6 ± 62.9	BLOQ ± NA	BLOQ ± NA		
O=S(=O)(N1CCC(Cn2c(C3CC3)nc3ccc(C(c4ccc(Cl)cc4)c4ccc(Cl)cc4)cc32)CC1)C(F)(F)F [Example 316]	3.86	3980 ± 448	247 ± 36			30.2 ± 5.2	22.9 ± 2.7						

More lines, main results first:

EC50 [2] [µM]	concentration at 1 h [1, 5] [ng/mL]	concentration at 4 h [1, 5] [ng/mL]	Brain Mean Conc. ± Std. Dev ([1]; dose 20 mg/kg oral)	Brain Mean Conc. ± Std. Dev ([3]; dose 20 mg/kg oral)	concentration at 4 h [1, 6] [ng/mL]	concentration at 1 h ([3]; dose 20 mg/kg oral) [ng/mL]	SMILES	concentration at 1 h [1, 4] [ng/mL]	concentration at 4 h [1, 4] [ng/mL]	Brain Mean Conc. ± Std. Dev ([1]; dose 30 mg/kg oral)	Brain Mean Conc. ± Std. Dev ([3]; dose 30 mg/kg oral)	concentration at 4 h [1, 7] [ng/mL]	concentration at 1 h ([3]; dose 30 mg/kg oral) [ng/mL]
8.86							O=C(O)c1ccc(S(=O)(=O)N2CCC(n3c(C4CC4)nc4ccc(C(c5ccc(Cl)cc5)c5ccc(Cl)cc5)cc43)CC2)o1 [Example 232]	81.9 ± 22.7	7.11 ± 6.55	BLOQ ± NA	BLOQ ± NA		
5.69	789	62.1 ± 20	BLOQ ± NA	BLOQ ± NA			O=C(O)c1cccc(S(=O)(=O)N2CCC(n3c(C4CC4)nc4ccc(C(c5ccc(Cl)cc5)c5ccc(Cl)cc5)cc43)CC2)c1 [Example 242]						
> 10	1420 ± 489	436 ± 83	BLOQ ± NA	BLOQ ± NA			O=S(=O)(c1cccc(O)c1)N1CCC(n2c(C3CC3)nc3ccc(C(c4ccc(Cl)cc4)c4ccc(Cl)cc4)cc32)CC1 [Example 259]						
> 10	2900 ± 245	1610 ± 207			167 ± 9.4	122 ± 18.1	COc1ccc(C(c2ccc(OC)cc2)c2ccc3nc(C4CCC4)n(C4CCN(S(=O)(=O)C(F)(F)F)CC4)c3c2)cc1 [Example 320]						
5.4	2870 ± 441	785 ± 191			48.4 ± 0.4	33.8 ± 5	CCc1nc2ccc(C(c3ccc(Cl)cc3)c3ccc(Cl)cc3)cc2n1CC1CCN(S(=O)(=O)C(F)(F)F)CC1 [Example 315]						
3.3	160 ± 69.7	33.8 ± 11.2	BLOQ ± NA	BLOQ ± NA			O=C(O)c1csc(S(=O)(=O)N2CCC(n3c(C4CC4)nc4ccc(C(c5ccc(Cl)cc5)c5ccc(Cl)cc5)cc43)CC2)c1 [Example 221]						
> 10	1550 ± 65.7	947 ± 191			292 ± 61	362 ± 36.9	CCc1nc2ccc(C(c3ccc(Cl)cc3)c3nccs3)cc2n1C1CCN(S(=O)(=O)C(F)(F)F)CC1 (stereo not drawn) [Example 400]						
2.61	227 ± 67.2	27.7 ± 13.1	BLOQ ± NA	BLOQ ± NA			O=C(O)c1ccc(S(=O)(=O)N2CCC(n3c(C4CC4)nc4ccc(C(c5ccc(Cl)cc5)c5ccc(Cl)cc5)cc43)CC2)cc1 [Example 276]						
> 10	3940 ± 480	2260 ± 822			104 ± 19	53.3 ± 14	O=S(=O)(N1CCC(n2c(C3CC3)nc3ccc(C(c4ccc(Cl)cc4)c4ccc(Cl)cc4)cc32)CC1)C(F)(F)F [Example 335]						
> 10	5880 ± 1290	2130 ± 245			69.4 ± 4.4	57.8 ± 14.8	O=S(=O)(N1CCC(n2c(C3CCC3)nc3ccc(C(c4ccc(Cl)cc4)c4ccc(Cl)cc4)cc32)CC1)C(F)(F)F [Example 318]						
